According to paper PMC6476888, “Design and synthesis of anticancer 1-hydroxynaphthalene-2-carboxanilides with a p53 independent mechanism of action” (Scientific Reports, 2019):
Where two headings read alike, the source gives them in different places.

Assays:
NHDF = assay: Cytotoxicity (MTS, 72 h) against normal human fibroblasts; type: cell-based; conditions: MTS, 72 h incubation
Protocol: (§1) All of the synthesized compounds were tested for their antiproliferative activity against human colon cancer (Table 1). We used both the wild-type and p53-negative cell lines (HCT116^+/+ and HCT116^−/−, respectively). Mutations in the TP53 gene are present in more than 50% of all cancers and often specifically correspond to a difficult therapy, resistance or a bad prognosis[60]–[63]. The active compounds were additionally tested for their cytotoxicity against normal human fibroblasts. We used 5-fluorouracil (5-FLU), doxorubicin (DOX) and CP-31398 as the standards. 5-FLU is one of the first antimetabolites that was dedicated for cancer treatment and is still used for a wide range of cancers including colon carcinoma. Doxorubicin is a DNA topoisomerase II poison with a high intercalating potency, which is able to induce apoptosis through the p53 pathway. Although DOX has been described as being ineffective in some p53 mutants, its level of activity against the p53 null lines is similar. CP-31398, on the other hand, is an experimental drug in the clinical phase and its mechanism of action is through the reactivation some of p53 mutants. Its activity against the p53 null cell lines is greatly diminished and is actually lower than its cytotoxicity.
(§2) The human colon cancer cell line HCT116 wild type was obtained from ATCC and the normal human fibroblast cell lines NHDF were obtained from PromoCell. The human colon cancer cell line HCT116 with a p53 deletion (p53^−/−) was kindly provided by Prof. M. Rusin from the Maria Sklodowska-Curie Memorial Cancer Centre and Institute of Oncology in Gliwice, Poland[89]. The cells were grown as monolayer cultures in Dulbecco’s modified Eagle’s medium with the antibiotic gentamicin (200 μL/100 mL medium) in 75 cm^2 flasks (Nunc). The DMEM for the HCT116 were supplemented with 12% heat-inactivated fetal bovine serum (Sigma-Aldrich, St. Louis, MO, USA) and for NHDF with 15% non-inactivated fetal bovine serum (Sigma Aldrich, St. Louis, MO, USA). The cells were cultured under standard conditions at 37 °C in a humidified atmosphere at 5% CO2.
(§3) The cells were seeded in 96-well plates (Nunc) at a density of 5,000 cells/well (HCT116) and 4,000 cells/well (NHDF) and incubated at 37 °C for 24 h. The assay was performed following a 72 h incubation with varying concentrations of the compounds that were being tested. Then, 20 µL of CellTiter 96® AQueous One Solution-MTS (Promega) was added to each well (with 100 µL DMEM without phenol red) and incubated for 1 h at 37 °C. The optical densities of the samples were analyzed at 490 nm using a Synergy 4 multi-plate reader (BioTek, Winooski, VT, USA). The results are expressed as the percentage of the control and were calculated as the inhibitory concentration (IC50) values (using a GraphPad Prism 7). The IC50 parameter was defined as the compound concentration that was necessary to reduce the proliferation of cells to 50% of the untreated control. Each individual compound was tested in triplicate in a single experiment with each experiment being repeated three or four times.

HCT116^+/+ = assay: Antiproliferative assay (MTS, 72 h) on HCT116 wild type; type: cell-based, human; conditions: MTS, 72 h incubation, read-out: Activity IC50 HCT116^+/+
Protocol: as §1, §2, §3

HCT116^−/− = assay: Antiproliferative assay (MTS, 72 h) on HCT116 with p53 deletion; type: cell-based, human; conditions: for IC50: MTS, 72 h incubation
Protocol: as §1, §2, §3

`O=C(Nc1ccc(Br)c(F)c1)c1ccc2ccccc2c1O` [4v] showed an IC50 (NHDF; Homo sapiens, NHDF) of over 25 µM, a melting point of 199 to 202 °C and an IC50 (HCT116^+/+; Homo sapiens, HCT-116) of 10.9 ± 2.69 µM. The “selectivity towards the p53 null cells (HCT116 p53^−/− vs wild type)” value (HCT116^−/−) was “not selective” and the IC50 (HCT116^−/−; Homo sapiens, HCT-116) was 12.4 ± 1.11 µM.
Molecule `COc1ccc(C)c(NC(=O)c2ccc3ccccc3c2O)c1` [3h] has an IC50 (NHDF; Homo sapiens, NHDF) of over 25 µM, a melting point of 128 to 130 °C and an IC50 (HCT116^+/+; Homo sapiens, HCT-116) of 11.7 ± 3.81 µM. It also gave an IC50 (HCT116^−/−; Homo sapiens, HCT-116) of over 25 µM.
Molecule `O=C(Nc1cc(Br)ccc1F)c1ccc2ccccc2c1O` [4t] has an IC50 (NHDF; Homo sapiens, NHDF) of over 25 µM, a melting point of 174 to 177 °C and an IC50 (HCT116^+/+; Homo sapiens, HCT-116) of 11.9 ± 1.28 µM. For the same molecule, the IC50 (HCT116^−/−; Homo sapiens, HCT-116) was 14 ± 2.2 µM.
For `O=C(Nc1ccc(F)cc1C(F)(F)F)c1ccc2ccccc2c1O` [7g], the melting point was 135 to 137 °C, the IC50 (HCT116^+/+; Homo sapiens, HCT-116) was over 25 µM and the IC50 (HCT116^−/−; Homo sapiens, HCT-116) was over 25 µM.
For `O=C(Nc1c(F)cccc1F)c1ccc2ccccc2c1O` [4f], the melting point was 197 to 200 °C, the IC50 (HCT116^+/+; Homo sapiens, HCT-116) was over 25 µM and the IC50 (HCT116^−/−; Homo sapiens, HCT-116) was over 25 µM.
Work on `O=C(Nc1cc(F)cc(F)c1)c1ccc2ccccc2c1O` [4h] yielded an IC50 (NHDF; Homo sapiens, NHDF) of 9.87 ± 0.66 µM, a melting point of 199 to 200 °C and an IC50 (HCT116^+/+; Homo sapiens, HCT-116) of 1.79 ± 0.44 µM. For the same molecule, the IC50 (HCT116^−/−; Homo sapiens, HCT-116) was 2.24 ± 0.3 µM.
For `O=C(Nc1cc(F)ccc1F)c1ccc2ccccc2c1O` [4e], the IC50 (NHDF; Homo sapiens, NHDF) was over 25 µM, the melting point was 153 to 155 °C and the IC50 (HCT116^+/+; Homo sapiens, HCT-116) was 4.76 ± 0.76 µM. The IC50 (HCT116^−/−; Homo sapiens, HCT-116) was 15.1 ± 6.75 µM.
`O=C(Nc1ccc(Cl)cc1F)c1ccc2ccccc2c1O` [4q] showed an IC50 (NHDF; Homo sapiens, NHDF) of over 25 µM, a melting point of 163 to 165 °C and an IC50 (HCT116^+/+; Homo sapiens, HCT-116) of 9.89 ± 3.26 µM. The IC50 (HCT116^−/−; Homo sapiens, HCT-116) was 9.69 ± 3.13 µM.
With `O=C(Nc1ccc(F)cc1Cl)c1ccc2ccccc2c1O` [5m] the IC50 (NHDF; Homo sapiens, NHDF) was over 25 µM, the melting point was 162 to 166 °C and the IC50 (HCT116^+/+; Homo sapiens, HCT-116) was 7.57 ± 2.16 µM. For the same molecule, the IC50 (HCT116^−/−; Homo sapiens, HCT-116) was 8.29 ± 2.92 µM.
Work on `O=C(Nc1cccc(C(F)(F)F)c1F)c1ccc2ccccc2c1O` [4p] yielded an IC50 (NHDF; Homo sapiens, NHDF) of 24.4 ± 2.51 µM, a melting point of 174 to 175 °C and an IC50 (HCT116^+/+; Homo sapiens, HCT-116) of 6.5 ± 1.16 µM. For the same molecule, the IC50 (HCT116^−/−; Homo sapiens, HCT-116) was 5.45 ± 1.72 µM.
In the case of `O=C(Nc1cc(C(F)(F)F)ccc1F)c1ccc2ccccc2c1O` [4u], the IC50 (NHDF; Homo sapiens, NHDF) is reported as over 25 µM, the melting point is reported as 190 to 192 °C and the IC50 (HCT116^+/+; Homo sapiens, HCT-116) is reported as 10.1 ± 2.61 µM. The IC50 (HCT116^−/−; Homo sapiens, HCT-116) was 7.45 ± 1.74 µM.
Molecule `O=C(Nc1cc(F)c(C(F)(F)F)cc1F)c1ccc2ccccc2c1O` [4z] has an IC50 (NHDF; Homo sapiens, NHDF) of 18.4 ± 0.91 µM, a melting point of 229 to 231 °C and an IC50 (HCT116^+/+; Homo sapiens, HCT-116) of 4.22 ± 0.87 µM. It also gave an IC50 (HCT116^−/−; Homo sapiens, HCT-116) of 2.82 ± 0.77 µM.
Molecule `O=C(Nc1cc(F)c(F)c(F)c1)c1ccc2ccccc2c1O` [4l] has an IC50 (NHDF; Homo sapiens, NHDF) of 10 ± 0.54 µM, a melting point of 242 to 247 °C and an IC50 (HCT116^+/+; Homo sapiens, HCT-116) of 1.19 ± 0.31 µM. For the same molecule, the IC50 (HCT116^−/−; Homo sapiens, HCT-116) was 1.42 ± 0.25 µM.
With `O=C(Nc1ccc(F)c(F)c1)c1ccc2ccccc2c1O` [4g] the melting point was 153 to 156 °C, the IC50 (HCT116^+/+; Homo sapiens, HCT-116) was 3.04 ± 0.06 µM and the IC50 (HCT116^−/−; Homo sapiens, HCT-116) was 5.88 ± 0.5 µM.
With `O=C(Nc1cc(Cl)c(Cl)cc1Cl)c1ccc2ccccc2c1O` [5j] the IC50 (NHDF) was 20.2 ± 0.79 µM, the IC50 (HCT116^+/+) was 3 ± 0.24 µM and the IC50 (HCT116^−/−) was 6.21 ± 0.66 µM.
`O=C(Nc1c(F)c(F)c(Br)c(F)c1F)c1ccc2ccccc2c1O` [4y] gave an IC50 (NHDF) of 7.87 ± 1.37 µM, an IC50 (HCT116^+/+) of 2.41 ± 0.69 µM and an IC50 (HCT116^−/−) of 5.68 ± 1.37 µM.
With `O=C(Nc1ccc(Cl)cc1Cl)c1ccc2ccccc2c1O` [5e] the IC50 (NHDF) was over 25 µM, the IC50 (HCT116^+/+) was 1.95 ± 0.5 µM and the IC50 (HCT116^−/−) was 6.06 ± 1.13 µM.
`O=C(Nc1cc(C(F)(F)F)ccc1C(F)(F)F)c1ccc2ccccc2c1O` [7e] gave an IC50 (NHDF) of 22.9 ± 2.1 µM, an IC50 (HCT116^+/+) of 4.44 ± 1.16 µM and an IC50 (HCT116^−/−) of 8.53 ± 3.37 µM.
`COc1ccc(NC(=O)c2ccc3ccccc3c2O)cc1C(F)(F)F` [7k] showed a melting point of 183 to 186 °C, an IC50 (HCT116^+/+; Homo sapiens, HCT-116) of over 25 µM and an IC50 (HCT116^−/−; Homo sapiens, HCT-116) of over 25 µM.
`COc1ccc(OC)c(NC(=O)c2ccc3ccccc3c2O)c1` [2d, N-(2,5-dimethoxyphenyl)−1-hydroxynaphthalene-2-carboxamide] showed a melting point of 116 to 119 °C, an IC50 (HCT116^+/+; Homo sapiens, HCT-116) of over 25 µM and an IC50 (HCT116^−/−; Homo sapiens, HCT-116) of over 25 µM.
In the case of `O=C(Nc1ccc(Br)cc1Br)c1ccc2ccccc2c1O` [6d], the IC50 (NHDF) is reported as over 25 µM, the IC50 (HCT116^+/+) is reported as 4.56 ± 0.43 µM and the IC50 (HCT116^−/−) is reported as 4.61 ± 0.72 µM.
Work on `COc1ccc(C)cc1NC(=O)c1ccc2ccccc2c1O` [2j] yielded a melting point of 106 to 108 °C, an IC50 (HCT116^+/+; Homo sapiens, HCT-116) of over 25 µM and an IC50 (HCT116^−/−; Homo sapiens, HCT-116) of over 25 µM.
`O=C(Nc1ccc([N+](=O)[O-])cc1C(F)(F)F)c1ccc2ccccc2c1O` [7j] gave an IC50 (NHDF) of 12.6 ± 1.32 µM, an IC50 (HCT116^+/+) of 2.04 ± 0.71 µM and an IC50 (HCT116^−/−) of 4.74 ± 1.68 µM.
`O=C(Nc1c(Cl)cc(C(F)(F)F)cc1Cl)c1ccc2ccccc2c1O` [5v] gave a melting point of 191 to 194 °C, an IC50 (HCT116^+/+; Homo sapiens, HCT-116) of over 25 µM and an IC50 (HCT116^−/−; Homo sapiens, HCT-116) of over 25 µM.
